Reference: patent US20260234188A1, “CHEMOKINE-BINDING PEPTIDES” (Oxford University Innovation Limited, priority 2022, published 2026)
Ends that are not written are not given here. Peptide text beside a SMILES is read from it.

How the values were obtained:
Assay type in all cases: cell-based
CXCL9 = molecular target: T1, CXCL9 (Homo sapiens, UniProt Q07325); assay: CXCL9-induced activated T-cell migration, transwell assay; details: HD2 mutant peptides 10 μM, chemokine at EC80
T1 construct: purchased Peprotech
T1 sequence (Q07325 23-125): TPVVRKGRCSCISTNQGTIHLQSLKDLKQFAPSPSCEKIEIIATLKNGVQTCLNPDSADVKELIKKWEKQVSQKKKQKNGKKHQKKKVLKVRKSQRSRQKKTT
Procedure: (§1) FIG. 2. […] BK1.2 is described in (Darlot, 2020). […] Chemokines used are indicated by the name, followed in parenthesis by the supplier code (P in supplier code indicates Peprotech). […] All experiments were performed at EC80 doses of indicated chemokine. Data are shown as box-whisker plots of three technical and three biological replicates. Statistically significant differences (compared to control, indicated by #), using Dunnett's test with correction for multiple comparisons, are indicated by asterisks: ****=P≤0.0001, ***=P≤0.001, **=P≤0.01, *=P≤0.05.
(§2) Briefly, cell migration assays use THP1 cells (human monocyte) and primary human buffy coat white cells (consisting of neutrophil granulocytes, monocytes, and lymphocytes), and activated T-cells. THP1 cells and primary monocytes respond to CCL2, CCL3, CCL5, CCL8 and CXCL4, granulocytes to CXCL1 and CXCL8, activated T-cells to CXCL9/10/11. Assays are performed in 96-well Boyden chambers, and migrated cells counted and characterized using and ATTUNE Flow Cytometer as described. Triplicate assays are performed at the EC80 dose of each chemokine at 10 μM peptide concentration.
(§3) The J:CXCR1 cell line was generated by transfecting Jurkat cells by electroporation with PvuI-linearized plasmid D1398 and selecting with blasticidin (Sigma-Aldrich, Cat #203350, […]). […] J:CXCR1 cells were cultured in RPMI-1640 media (Gibco), supplemented with 10% FBS and 5 mM L-Glutamine with blasticidin. For J:CXCR1 migration assays, 300,000 cells/well were added to the top chamber of a 3 μm Transwell insert (Corning) in 50 μL of migration media (RPMI-1640, 0.5% FBS, 4 mM L-Glutamine, 0.05% DMSO). The bottom chamber contained 150 μL of chemokine, with or without peptide. Cells were migrated at 37° C. in 5% CO2 for 4 hours. The plate was incubated on a shaking platform for 10 minutes, 800 rpm, at 37° C., and 150 μL from the bottom of the plate transferred into a U-bottom plate containing 50 μL of migration media. Cell counts were determined by Attune NxT Flow Cytometer Plate Reader (ThermoFisher), based on cell size parameters FSC-H/SSC-H. Experiments were performed in 3 technical and 3 biological replicates. THP-1 migration assays were carried out using methods known in the art. Activated T-cell assays were carried out using methods known in the art, with the following modifications in the isolation process. Peripheral blood cells were obtained from leucocyte cones (NHS Blood Transfusion Services), following which, T-cells were isolated using two rounds of human CD8+ T-cell isolation kit (480011, BioLegend). At day 10 after activation, T-cells were frozen at 20 E6 cells/ml in TexMACS medium supplemented with 10% DMSO (D2650, Sigma) in liquid nitrogen. Prior to use, activated T-cells were recovered for 24 hours in TexMACs medium at 0.3 E6 cells/ml and incubated at 37° C. in 5% CO2. Chemokine sources are described in Supplementary information Table 3. Statistical significances between control experimental groups was evaluated using Dunnett's test. IC50 experiments were performed at the EC80 dose of chemokine. EC80 was calculated by fitting a chemokine dose-response curve with 3 parameters (fixing the top to 100%). IC50 was calculated by fitting an inhibitor response curve with 4 parameters.

CXCL5 = molecular target: T2, CXCL5 (Homo sapiens, UniProt P42830); assay: CXCL5-induced cell migration assay; details: HD2 mutant peptides 10 μM, chemokine at EC80
T2 sequence (P42830 37-114): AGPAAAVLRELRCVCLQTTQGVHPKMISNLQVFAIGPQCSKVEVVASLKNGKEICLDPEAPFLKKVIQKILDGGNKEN
Procedure: (§4) FIGS. 24 and 25. Effect of exemplar mutant HD2 peptides on chemotaxis. Box-whisker plots showing the effect of the exemplar mutant HD2 peptides on cell migration induced by indicated human chemokines. All experiments were performed as at least three technical and between one to three biological replicates, and individual data points are indicated. […] Chemokine and cell type names are indicated. HD2SCR is a scrambled version of HD2 used as negative control. All peptides were at 10 μM final concentration and chemokines at EC80 doses. Statistically significant differences (compared to control, coloured blue), using Dunnett's test with correction for multiple comparisons, are indicated by asterisks: ****=P≤0.0001, ***=P≤0.001, **=P≤0.01, *=P≤0.05.
The J:CXCR1 cell line was generated by transfecting Jurkat cells by electroporation with PvuI-linearized plasmid D1398 and selecting with blasticidin (Sigma-Aldrich, Cat #203350, […]). […] J:CXCR1 cells were cultured in RPMI-1640 media (Gibco), supplemented with 10% FBS and 5 mM L-Glutamine with blasticidin. For J:CXCR1 migration assays, 300,000 cells/well were added to the top chamber of a 3 μm Transwell insert (Corning) in 50 μL of migration media (RPMI-1640, 0.5% FBS, 4 mM L-Glutamine, 0.05% DMSO). […] Cell counts were determined by Attune NxT Flow Cytometer Plate Reader (ThermoFisher), based on cell size parameters FSC-H/SSC-H. Experiments were performed in 3 technical and 3 biological replicates. […] Statistical significances between control experimental groups was evaluated using Dunnett's test. […] EC80 was calculated by fitting a chemokine dose-response curve with 3 parameters (fixing the top to 100%). IC50 was calculated by fitting an inhibitor response curve with 4 parameters.
Migration assays using THP1, activated T-cell (ATC) and J:CXCR1 (Jurkat cells stably transfected with CXCR1 receptor) were performed as described previously. […] EC80 was calculated by fitting a chemokine dose-response curve with 3 parameters (fixing the top to 100%). IC50 was calculated by fitting an inhibitor response curve with 4 parameters. […]

CCL21 = molecular target: T3, CCL21 (Homo sapiens, UniProt O00585); assay: CCL21-induced cell migration assay; details: HD2 mutant peptides 10 μM, chemokine at EC80
T3 sequence (O00585 24-134): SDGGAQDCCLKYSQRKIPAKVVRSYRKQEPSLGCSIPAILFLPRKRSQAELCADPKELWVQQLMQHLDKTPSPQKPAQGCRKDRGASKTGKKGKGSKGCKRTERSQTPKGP
Procedure: as §4, §3
(§5) Migration assays using THP1, activated T-cell (ATC) and J:CXCR1 (Jurkat cells stably transfected with CXCR1 receptor) were performed as described previously. IC50 experiments were performed at the EC80 dose of chemokine. EC80 was calculated by fitting a chemokine dose-response curve with 3 parameters (fixing the top to 100%). IC50 was calculated by fitting an inhibitor response curve with 4 parameters. R-packages used were ggupset_0.3.0, DescTools_0.99.44, and drc_3.0-1.

CXCL12 = CXCL12 (Homo sapiens, UniProt P48061); set-up: activity in inhibiting migration of activated T cells in comparison to HD2_Y5W: dose or concentration left out as unconfirmed; details: chemokine at EC80; for chemotaxis compared with the parental HD2 peptide: HD2 mutant peptides 10 μM
Chain of CXCL12 (P48061 22-89 limits assumed): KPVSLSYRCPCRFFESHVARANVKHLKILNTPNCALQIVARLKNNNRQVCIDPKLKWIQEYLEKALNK
Procedure: FIG. 22. Effect of selected combinatorial HD2 mutations on chemotaxis. FIG. 22A. Box-whisker plot showing the effect of the exemplar single and combinatorically mutant (CM) HD2 peptides on activated-T cell (ATC) migration induced by CXCL12. All experiments were performed as at least three technical and three biological replicates, and individual data points are indicated. […] HD2SCR is a scrambled version of HD2. […] Statistically significant differences (compared to control, HD2_Y5W, coloured blue), using Dunnett's test with correction for multiple comparisons, are indicated by asterisks: ****=P≤0.0001, ***=P≤0.001, **=P≤0.01, *=P≤0.05. All comparisons were made to HD2_Y5W, as it is present in CM539, CM452, and CM304. […] Technical replicates are shown as individual data points. […] The response curve (solid blue line) and its 95% confidence interval (grey ribbon) were calculated using a 4-parameter log-logistic plot. The agonist and estimated IC50 (dotted green line) are indicated.
as §3, §5

CXCL11 = molecular target: T4, CXCL11 (Homo sapiens, UniProt O14625); assay: CXCL11-induced activated T-cell migration, transwell assay; details: HD2 mutant peptides 10 μM, chemokine at EC80
T4 construct: purchased Peprotech
T4 sequence (O14625 22-94): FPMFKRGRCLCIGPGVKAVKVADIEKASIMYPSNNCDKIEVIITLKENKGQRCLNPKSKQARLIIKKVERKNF
Procedure: as §1, §2, §3

Row | Molecule | chemotaxis compared with the parental HD2 peptide (CXCL9) | chemotaxis compared with the parental HD2 peptide (CXCL5) | chemotaxis compared with the parental HD2 peptide (CCL21) | chemotaxis compared with the parental HD2 peptide (CXCL12) | activity in inhibiting migration of activated T cells in comparison to HD2_Y5W (CXCL12; peptides final concentration as printed) | chemotaxis compared with the parental HD2 peptide (CXCL11)
1 | CC(C)C[C@H](NC(=O)[C@@H]1CCCN1C(=O)[C@H](C)NC(=O)[C@H](Cc1ccc(O)cc1)NC(=O)[C@H](C)NC(=O)[C@@H](NC(=O)[C@H](Cc1ccc(O)cc1)NC(=O)[C@H](CC(=O)O)NC(=O)[C@H](CC(=O)O)NC(=O)[C@H](CCC(=O)O)NC(=O)[C@@H](N)CCC(=O)O)[C@@H](C)O)C(=O)N[C@H](C(=O)N[C@@H](CS)C(=O)N[C@@H](Cc1ccc(O)cc1)C(=O)N[C@@H](Cc1ccccc1)C(=O)N[C@@H](CS)C(N)=O)[C@@H](C)O [HD2_C16, EEDDYTAYAPLTCYFC] (H-EEDDYTAYAPLTCYFC-NH2; N-terminus assumed) | significant reduction in chemotaxis | significant reduction in chemotaxis | significant reduction in chemotaxis | significant reduction in chemotaxis | potent inhibitor | significant reduction in chemotaxis
2 | EEDDWTAYAPLTCYFT-NH2 [HD2_W5, EEDDWTAYAPLTCYFT] | significant reduction in chemotaxis | – | significant reduction in chemotaxis | significant reduction in chemotaxis | – | significant reduction in chemotaxis
3 | EEDDYTAYWPLTCYFT [A9W] | significant reduction in chemotaxis | significant reduction in chemotaxis | significant reduction in chemotaxis | significant reduction in chemotaxis | – | significant reduction in chemotaxis
4 | EEDDYWAYAPLTCYFT [HD2_W6] | significant reduction in chemotaxis | significant reduction in chemotaxis | significant reduction in chemotaxis | – | – | significant reduction in chemotaxis
